According to patent US7880007B2, “Bicyclic substituted phenyl piperidine modulators of muscarinic receptors” (Vertex Pharmaceuticals Incorporated, priority 2004, dated 2011):

Tests used:
Assay type in all cases: cell-based
M1 muscarinic receptor = molecular target: T1, M1 muscarinic receptor (Homo sapiens, UniProt P11229); experiment: Functional mobilization of intracellular calcium (FLIPR), M1-CHO cells; settings: for M1 Activity: M1-CHO cells, calcium mobilization (FLIPR)
T1 construct: expressed in transfected cells; host or cells: CHO (M1-CHO)
T1 sequence (P11229 1-460): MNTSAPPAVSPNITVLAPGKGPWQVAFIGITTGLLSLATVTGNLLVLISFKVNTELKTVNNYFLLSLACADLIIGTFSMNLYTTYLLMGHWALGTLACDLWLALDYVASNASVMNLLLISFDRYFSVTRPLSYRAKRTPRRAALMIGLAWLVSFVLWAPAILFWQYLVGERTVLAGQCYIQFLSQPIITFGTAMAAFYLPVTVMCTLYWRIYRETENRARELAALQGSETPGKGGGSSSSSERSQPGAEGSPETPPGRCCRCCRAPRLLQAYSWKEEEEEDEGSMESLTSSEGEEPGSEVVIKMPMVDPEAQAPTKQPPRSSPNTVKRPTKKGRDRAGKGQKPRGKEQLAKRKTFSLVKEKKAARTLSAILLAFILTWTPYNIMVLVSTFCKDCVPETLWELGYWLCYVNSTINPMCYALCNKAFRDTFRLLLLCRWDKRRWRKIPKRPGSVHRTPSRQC
How it was run: (§1)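 Calcium mobilisation read by FLIPR over 60 s (ex 488/em 540 nm) in recombinant muscarinic CHO lines loaded with calcium dye plus 1 mM probenecid. Compounds tested as agonists alone, or as inhibitors against EC80 carbachol after 15 min pre-incubation or co-addition; 0.5% DMSO; efficacy scaled to carbachol maximal response.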

M2 muscarinic receptor = molecular target: T2, M2 muscarinic receptor (Homo sapiens, UniProt P08172); experiment: Functional mobilization of intracellular calcium (FLIPR), M2-CHO cells; settings: for M2 Activity: M2-CHO cells, calcium mobilization (FLIPR)
T2 construct: expressed in transfected cells; host or cells: CHO (M2-CHO)
T2 sequence (P08172 1-466): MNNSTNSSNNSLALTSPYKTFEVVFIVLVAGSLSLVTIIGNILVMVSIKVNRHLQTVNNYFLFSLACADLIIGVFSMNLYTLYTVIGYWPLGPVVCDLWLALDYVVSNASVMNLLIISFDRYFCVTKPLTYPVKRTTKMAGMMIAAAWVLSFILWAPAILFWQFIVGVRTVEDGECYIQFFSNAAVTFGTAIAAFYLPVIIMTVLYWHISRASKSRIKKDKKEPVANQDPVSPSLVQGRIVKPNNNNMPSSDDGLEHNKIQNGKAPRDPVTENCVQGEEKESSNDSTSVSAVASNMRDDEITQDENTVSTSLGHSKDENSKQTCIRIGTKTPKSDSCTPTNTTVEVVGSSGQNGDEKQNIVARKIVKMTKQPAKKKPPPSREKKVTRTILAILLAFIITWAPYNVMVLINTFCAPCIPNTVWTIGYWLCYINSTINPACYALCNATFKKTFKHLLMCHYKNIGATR
How it was run: as §1

M3 muscarinic receptor = molecular target: T3, M3 muscarinic receptor (Homo sapiens, UniProt P20309); experiment: Functional mobilization of intracellular calcium (FLIPR), M3-CHO cells; settings: for M3 Activity: M3-CHO cells, calcium mobilization (FLIPR)
T3 construct: expressed in transfected cells; host or cells: CHO (M3-CHO)
T3 sequence (P20309 whole entry): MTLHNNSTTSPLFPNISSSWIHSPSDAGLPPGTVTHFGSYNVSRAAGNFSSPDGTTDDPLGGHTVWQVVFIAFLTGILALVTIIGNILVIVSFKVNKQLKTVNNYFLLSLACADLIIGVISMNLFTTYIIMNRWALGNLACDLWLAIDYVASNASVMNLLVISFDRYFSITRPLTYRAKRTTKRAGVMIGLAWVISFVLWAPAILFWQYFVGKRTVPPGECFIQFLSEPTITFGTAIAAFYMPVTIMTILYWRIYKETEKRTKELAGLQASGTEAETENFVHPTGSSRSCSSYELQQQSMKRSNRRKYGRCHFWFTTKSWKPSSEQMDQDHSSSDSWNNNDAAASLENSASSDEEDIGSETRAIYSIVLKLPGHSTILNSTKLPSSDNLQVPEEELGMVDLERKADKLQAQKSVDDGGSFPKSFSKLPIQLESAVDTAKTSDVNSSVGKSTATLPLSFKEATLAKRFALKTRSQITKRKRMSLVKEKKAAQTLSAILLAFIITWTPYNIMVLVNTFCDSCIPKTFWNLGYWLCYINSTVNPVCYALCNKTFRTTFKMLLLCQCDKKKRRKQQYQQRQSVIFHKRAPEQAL
How it was run: as §1

M4 muscarinic receptor = molecular target: T4, M4 muscarinic receptor (Homo sapiens, UniProt P08173); experiment: Functional mobilization of intracellular calcium (FLIPR), M4-CHO cells; settings: for M4 Activity: M4-CHO cells, calcium mobilization (FLIPR)
T4 construct: expressed in transfected cells; host or cells: CHO (M4-CHO)
T4 sequence (P08173 1-479): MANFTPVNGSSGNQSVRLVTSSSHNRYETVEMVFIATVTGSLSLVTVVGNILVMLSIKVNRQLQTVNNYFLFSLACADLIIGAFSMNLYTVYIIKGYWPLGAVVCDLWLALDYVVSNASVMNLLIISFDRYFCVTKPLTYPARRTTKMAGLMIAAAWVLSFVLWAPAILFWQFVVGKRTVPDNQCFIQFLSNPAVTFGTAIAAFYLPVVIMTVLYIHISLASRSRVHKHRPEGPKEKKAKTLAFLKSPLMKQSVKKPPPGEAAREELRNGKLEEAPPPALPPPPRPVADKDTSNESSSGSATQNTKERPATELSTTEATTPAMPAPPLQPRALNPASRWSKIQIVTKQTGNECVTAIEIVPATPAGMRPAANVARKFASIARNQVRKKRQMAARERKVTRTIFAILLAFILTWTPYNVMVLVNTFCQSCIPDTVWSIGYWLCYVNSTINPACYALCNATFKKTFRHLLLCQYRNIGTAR
How it was run: as §1

[1] = 100% efficacy = maximum response obtained with the Carbachol control
[2] = 100% efficacy is the maximum response obtained with the Carbachol control

Compound | Emax (M1 muscarinic receptor; [1]) | M1 Activity (M1 muscarinic receptor) | Emax (M2 muscarinic receptor; [1]) | M2 Activity (M2 muscarinic receptor) | Emax (M3 muscarinic receptor; [1]) | M3 Activity (M3 muscarinic receptor) | Emax (M4 muscarinic receptor; [1]) | M4 Activity (M4 muscarinic receptor) | Emax (M1 muscarinic receptor; [2]) | Emax (M2 muscarinic receptor; [2]) | Emax (M3 muscarinic receptor; [2]) | Emax (M4 muscarinic receptor; [2])
CC(C)Oc1ccccc1C1CCN([C@H]2C[C@H]3CC[C@H]2C3)CC1 [Compound 26] | 25 to 100% | ++ (activity was measured to be from 1.0 μM to 5.0 μM) | < 25% | + (activity was measured to be greater than 5.0 μM) | < 25% | + (activity was measured to be greater than 5.0 μM) | 25 to 100% | +++ (activity was measured to be less than 1.0 μM) | – | – | – | –
COc1c(F)cc(F)cc1C1CCN(C2CC3CCC(C3)C2)CC1 (stereo not drawn) [Compound 311] | < 25% | + (activity was measured to be greater than 5.0 μM) | < 25% | + (activity was measured to be greater than 5.0 μM) | < 25% | + (activity was measured to be greater than 5.0 μM) | 25 to 100% | +++ (activity was measured to be less than 1.0 μM) | – | – | – | –
COc1ccc(F)cc1C1CCN([C@@H]2C[C@H]3CC[C@H]2C3)CC1 [Compound 354] | 25 to 100% | +++ (activity was measured to be less than 1.0 μM) | 25 to 100% | ++ (activity was measured to be from 1.0 μM to 5.0 μM) | < 25% | + (activity was measured to be greater than 5.0 μM) | 25 to 100% | +++ (activity was measured to be less than 1.0 μM) | – | – | – | –
COc1ccc(F)cc1C1CCN(C[C@@H]2C[C@H]3C=C[C@H]2C3)CC1 [Compound 167] | 25 to 100% | ++ (activity was measured to be from 1.0 μM to 5.0 μM) | < 25% | + (activity was measured to be greater than 5.0 μM) | < 25% | + (activity was measured to be greater than 5.0 μM) | 25 to 100% | +++ (activity was measured to be less than 1.0 μM) | – | – | – | –
COc1ccccc1C1CCN(CC2CCOC2)CC1 (stereo not drawn) [Compound 369] | 25 to 100% | + (activity was measured to be greater than 5.0 μM) | < 25% | + (activity was measured to be greater than 5.0 μM) | < 25% | + (activity was measured to be greater than 5.0 μM) | 25 to 100% | ++ (activity was measured to be from 1.0 μM to 5.0 μM) | – | – | – | –
COc1ccc(-c2ccc(F)cc2F)cc1C1CCN([C@H]2C[C@H]3CC[C@H]2C3)CC1 [Compound 48] | 25 to 100% | + (activity was measured to be greater than 5.0 μM) | < 25% | + (activity was measured to be greater than 5.0 μM) | < 25% | + (activity was measured to be greater than 5.0 μM) | 25 to 100% | + (activity was measured to be greater than 5.0 μM) | – | – | – | –
Cc1ccc(C(F)(F)F)cc1C1CCN(C2CCOCC2)CC1 [Compound 358] | 25 to 100% | ++ (activity was measured to be from 1.0 μM to 5.0 μM) | 25 to 100% | + (activity was measured to be greater than 5.0 μM) | < 25% | + (activity was measured to be greater than 5.0 μM) | 25 to 100% | ++ (activity was measured to be from 1.0 μM to 5.0 μM) | – | – | – | –
Fc1cccc(C2CCN(C3C[C@H]4CC[C@H]3C4)CC2)c1F (stereo partly drawn) [Compound 276] | 25 to 100% | + (activity was measured to be greater than 5.0 μM) | < 25% | + (activity was measured to be greater than 5.0 μM) | < 25% | + (activity was measured to be greater than 5.0 μM) | 25 to 100% | ++ (activity was measured to be from 1.0 μM to 5.0 μM) | – | – | – | –
CCc1ccc(OC)c(C2CCN([C@@H]3C[C@H]4CC[C@H]3C4)CC2)c1 [Compound 260] | 25 to 100% | +++ (activity was measured to be less than 1.0 μM) | < 25% | + (activity was measured to be greater than 5.0 μM) | < 25% | + (activity was measured to be greater than 5.0 μM) | 25 to 100% | +++ (activity was measured to be less than 1.0 μM) | – | – | – | –
COc1ccc(Cl)cc1C1CCN(C2CCC(=O)CC2)CC1 [Compound 273, 4-(4-(5-chloro-2-methoxyphenyl)piperidin-1-yl)cyclohexanone] | 25 to 100% | + (activity was measured to be greater than 5.0 μM) | 25 to 100% | ++ (activity was measured to be from 1.0 μM to 5.0 μM) | < 25% | + (activity was measured to be greater than 5.0 μM) | 25 to 100% | +++ (activity was measured to be less than 1.0 μM) | – | – | – | –
CCOC(=O)N1CCC(N2CCC(c3cc(Cl)ccc3OC)CC2)CC1 [Compound 392] | – | +++ (activity was measured to be less than 1.0 μM) | – | +++ (activity was measured to be less than 1.0 μM) | – | +++ (activity was measured to be less than 1.0 μM) | – | +++ (activity was measured to be less than 1.0 μM) | 25 to 100% | 25 to 100% | 25 to 100% | 25 to 100%
CCOC(=O)N1CCC(N2CCC(c3ccccc3OC)CC2)CC1 [Compound 211] | 25 to 100% | +++ (activity was measured to be less than 1.0 μM) | 25 to 100% | +++ (activity was measured to be less than 1.0 μM) | 25 to 100% | + (activity was measured to be greater than 5.0 μM) | > 100% | +++ (activity was measured to be less than 1.0 μM) | – | – | – | –
